Experimental data published in BindingDB's records for doi:10.7270/Q2MC8XNQ (Burnham Center For Chemical Genomics, 2012).

Biological target: T1, Sentrin-specific protease 1 (Homo sapiens, UniProt Q9P0U3)
T1 sequence (Q9P0U3 whole entry): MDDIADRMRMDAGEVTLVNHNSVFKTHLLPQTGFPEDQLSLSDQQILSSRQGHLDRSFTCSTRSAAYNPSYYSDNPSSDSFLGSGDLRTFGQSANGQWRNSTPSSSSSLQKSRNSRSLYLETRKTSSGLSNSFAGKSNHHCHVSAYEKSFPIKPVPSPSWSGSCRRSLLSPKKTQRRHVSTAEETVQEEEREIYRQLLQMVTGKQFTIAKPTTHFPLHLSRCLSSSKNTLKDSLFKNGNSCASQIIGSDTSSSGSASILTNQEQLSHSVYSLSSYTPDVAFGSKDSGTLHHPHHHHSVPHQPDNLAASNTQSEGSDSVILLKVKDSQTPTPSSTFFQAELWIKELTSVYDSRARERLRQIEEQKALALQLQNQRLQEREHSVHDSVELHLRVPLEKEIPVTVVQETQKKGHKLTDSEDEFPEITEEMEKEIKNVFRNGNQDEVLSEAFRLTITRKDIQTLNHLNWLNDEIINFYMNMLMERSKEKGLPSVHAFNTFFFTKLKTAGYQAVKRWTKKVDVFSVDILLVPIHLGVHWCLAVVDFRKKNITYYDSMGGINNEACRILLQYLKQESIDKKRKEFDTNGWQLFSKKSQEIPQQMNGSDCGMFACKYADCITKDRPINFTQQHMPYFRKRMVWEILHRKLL

IC50 [µM]	SMILES
10.9	CCOC1=CC(=Cc2sc(=O)[nH]c2N)C=CC1=O
21.5	O=[N+]([O-])c1ccc(C/N=N/c2ccccc2)cc1
> 80	COc1ccc(OC)c(CCNC(=O)c2ccc3c(=O)[nH]c4c(C(=O)NC(C)C)sc(=S)n4c3c2)c1
5.56	COc1ccc(-n2c(O)c3c(c2O)C(C(=O)c2ccc(Cl)cc2)N2CCCC32)cc1 (stereo unspecified)
21	O=C1CC(=Nc2ccc(Cl)cc2)C(=O)N1c1ccc(Cl)cc1 [1-(4-chlorophenyl)-3-[(4-chlorophenyl)amino]pyrrole-2,5-dione]
29	CC1(C)CC(=O)C2Sc3ccccc3N=C2C1 (stereo unspecified) [2,2-Dimethyl-2,3-dihydro-1H,10H-phenothiazin-4-one]
8.36	O=C(Cc1cccc2ccccc12)NC(NC(=S)Nc1ccccc1Cl)C(Cl)(Cl)Cl (stereo unspecified) [2-(1-naphthyl)-N-[2,2,2-trichloro-1-({[(2-chlorophenyl)amino]carbonothioyl}amino)ethyl]acetamide]
41.9	N#CC1C(=N)Oc2cc(Nc3ccccc3)ccc2C1c1ccncc1 (stereo unspecified) [2-amino-7-anilino-4-pyridin-4-yl-4H-1-benzopyran-3-carbonitrile]
17.9	CCN1C(=O)c2cccc3c(NC(=O)c4cccc(-n5c(O)ccc5O)c4)ccc1c23 [3-(2,5-dioxopyrrolidin-1-yl)-N-(1-ethyl-2-oxobenzo[cd]indol-6-yl)benzamide]
19.3	COc1ccc(C=Nn2c(O)csc2=S)cc1Br [3-[(E)-(3-bromo-4-methoxyphenyl)methylideneamino]-2-sulfanylidene-4-thiazolidinone]
13.1	O=C1CC(=O)c2cccc3cccc1c23 [3-hydroxy-1H-phenalen-1-one]
10.8	Oc1c2c(c(O)n1-c1ccccn1)C(c1ccccc1)C=CC2c1ccccc1 (stereo unspecified) [4,7-diphenyl-2-pyridin-2-yl-3a,4,7,7a-tetrahydroisoindole-1,3-dione]
11.6	COc1nccnc1NS(=O)(=O)c1ccc(NC(=S)NC(=O)c2ccc(F)cc2)cc1 [4-[3-(4-Fluoro-benzoyl)-thioureido]-N-(3-methoxy-pyrazin-2-yl)-benzenesulfonamide]
15.1	O=C(O)c1ccc(N=NCc2cccc3nccnc23)cc1 [4-[(2E)-2-(5-quinoxalinylmethylidene)hydrazinyl]benzoic acid]
> 80	O=C1NC(=S)N/C1=C/c1cccc([N+](=O)[O-])c1O [(5E)-5-[(2-hydroxy-3-nitrophenyl)methylidene]-2-sulfanylideneimidazolidin-4-one]
> 80	CCOC(=O)/C(C#N)=C/C=C1\C=Cc2ccccc2N1CC [(E,4E)-2-cyano-4-(1-ethyl-2-quinolinylidene)-2-butenoic acid ethyl ester]
7.5	CC(=O)Oc1ccc(-n2c(O)c3c(c2O)C(C(=O)c2ccc(Cl)cc2)N2CCCC32)cc1 (stereo unspecified) [Acetic acid 4-[4-(4-chloro-benzoyl)-1,3-dioxo-octahydro-pyrrolo[3,4-a]pyrrolizin-2-yl]-phenyl ester]
13.7	O=C1CCCC2=Nc3cc(Cl)ccc3SC12 (stereo unspecified) [MLS000333002]
10.1	CN(C)c1ccc(C=NNC(=O)C(=O)CC2=NC3(CCCC3)Cc3ccccc32)cc1 [MLS000589038]
31	COc1ccc(-n2c(O)c3c(c2O)C(C(=O)c2ccccc2)N2CCCC32)cc1 (stereo unspecified) [MLS000762485]
9.57	CCOc1cc(C=c2[nH]c3n(c2=O)CCCCC=3)ccc1O [MLS000774439]
18.1	CC1=C(C#N)C(=O)NC(=O)C1=NNc1ccc(Br)cc1C(=O)O [MLS001213177]
12.5	O=NC1c2cc([N+](=O)[O-])ccc2-c2cc(Cl)c(NC(=O)C(F)(F)F)cc21 (stereo unspecified) [MLS002707326]
18.1	Nc1ccc2c(c1)C(N=O)c1cc([N+](=O)[O-])ccc1-2 (stereo unspecified) [N-(2-azanyl-7-nitro-fluoren-9-ylidene)hydroxylamine]
> 80	Nc1cc([N+](=O)[O-])ccc1Nc1ccccc1 [SMR000271721]
> 80	CCN(CC)CCNc1cccc2sc3ccccc3c(=O)c12 [SMR001821489]
